Measured values as given in patent US8716316B2 (Hoffmann-La Roche Inc., priority 2009, dated 2014).

Biological target: T1, human mGlu5a receptor (Homo sapiens, UniProt P41594)
T1 construct: expressed in transfected cells
Assay: Intracellular Ca2+ mobilization assay
Format: cell-based
Conditions: for Emax: HEK293, read-out: Efficacy (%); for EC50: HEK-293 cells stably transfected with human mGlu5a receptor, pre-incubation 10-30 min with test compound, then L-glutamate at EC20 (typically around 80 μM), Fluo-4AM fluorescence, read-out: EC50 (nM) mGluR5 PAM
Description: A monoclonal HEK-293 cell line stably transfected with a cDNA encoding for the human mGlu5a receptor was generated; for the work with mGlu5 Positive Allosteric Modulators (PAMs), a cell line with low receptor expression levels and low constitutive receptor activity was selected to allow the differentiation of agonistic versus PAM activity. Cells were cultured according to standard protocols (Freshney, 2000) in Dulbecco's Modified Eagle Medium with high glucose supplemented with 1 mM glutamine, 10% (vol/vol) heat-inactivated bovine calf serum, Penicillin/Streptomycin, 50 μg/ml hygromycin and 15 μg/ml blasticidin (all cell culture reagents and antibiotics from Invitrogen, Basel, Switzerland).
About 24 hrs before an experiment, 5×10^4 cells/well were seeded in poly-D-lysine coated, black/clear-bottomed 96-well plates. The cells were loaded with 2.5 μM Fluo-4AM in loading buffer (1×HBSS, 20 mM HEPES) for 1 hr at 37° C. and washed five times with loading buffer. The cells were transferred into a Functional Drug Screening System 7000 (Hamamatsu, Paris, France), and 11 half logarithmic serial dilutions of test compound at 37° C. were added and the cells were incubated for 10-30 min. with on-line recording of fluorescence. Following this pre-incubation step, the agonist L-glutamate was added to the cells at a concentration corresponding to EC20 (typically around 80 μM) with on-line recording of fluorescence; in order to account for day-to-day variations in the responsiveness of cells, the EC20 of glutamate was determined immediately ahead of each experiment by recording of a full dose-response curve of glutamate.
Responses were measured as peak increase in fluorescence minus basal (i.e. fluorescence without addition of L-glutamate), normalized to the maximal stimulatory effect obtained with saturating concentrations of L-glutamate. Graphs were plotted with the % maximal stimulatory using XLfit, a curve fitting program that iteratively plots the data using Levenburg Marquardt algorithm. The single site competition analysis equation used was y=A+((B−A)/(1+((x/C)D))), where y is the % maximal stimulatory effect, A is the minimum y, B is the maximum y, C is the EC50, x is the log 10 of the concentration of the competing compound and D is the slope of the curve (the Hill Coefficient). From these curves the EC50 (concentration at which half maximal stimulation was achieved), the Hill coefficient as well as the maximal response in % of the maximal stimulatory effect obtained with saturating concentrations of L-glutamate were calculated.
A depression of the signal observed after addition of the EC20 concentration of L-glutamate was indicative of an inhibitory activity of the test compound.

[1] = maximal response in % of the maximal stimulatory effect obtained with saturating concentrations of L-glutamate, HEK-293 human mGlu5a cells, L-glutamate at EC20

T1 sequence (P41594 21-1180 isoform P41594-2 limits assumed): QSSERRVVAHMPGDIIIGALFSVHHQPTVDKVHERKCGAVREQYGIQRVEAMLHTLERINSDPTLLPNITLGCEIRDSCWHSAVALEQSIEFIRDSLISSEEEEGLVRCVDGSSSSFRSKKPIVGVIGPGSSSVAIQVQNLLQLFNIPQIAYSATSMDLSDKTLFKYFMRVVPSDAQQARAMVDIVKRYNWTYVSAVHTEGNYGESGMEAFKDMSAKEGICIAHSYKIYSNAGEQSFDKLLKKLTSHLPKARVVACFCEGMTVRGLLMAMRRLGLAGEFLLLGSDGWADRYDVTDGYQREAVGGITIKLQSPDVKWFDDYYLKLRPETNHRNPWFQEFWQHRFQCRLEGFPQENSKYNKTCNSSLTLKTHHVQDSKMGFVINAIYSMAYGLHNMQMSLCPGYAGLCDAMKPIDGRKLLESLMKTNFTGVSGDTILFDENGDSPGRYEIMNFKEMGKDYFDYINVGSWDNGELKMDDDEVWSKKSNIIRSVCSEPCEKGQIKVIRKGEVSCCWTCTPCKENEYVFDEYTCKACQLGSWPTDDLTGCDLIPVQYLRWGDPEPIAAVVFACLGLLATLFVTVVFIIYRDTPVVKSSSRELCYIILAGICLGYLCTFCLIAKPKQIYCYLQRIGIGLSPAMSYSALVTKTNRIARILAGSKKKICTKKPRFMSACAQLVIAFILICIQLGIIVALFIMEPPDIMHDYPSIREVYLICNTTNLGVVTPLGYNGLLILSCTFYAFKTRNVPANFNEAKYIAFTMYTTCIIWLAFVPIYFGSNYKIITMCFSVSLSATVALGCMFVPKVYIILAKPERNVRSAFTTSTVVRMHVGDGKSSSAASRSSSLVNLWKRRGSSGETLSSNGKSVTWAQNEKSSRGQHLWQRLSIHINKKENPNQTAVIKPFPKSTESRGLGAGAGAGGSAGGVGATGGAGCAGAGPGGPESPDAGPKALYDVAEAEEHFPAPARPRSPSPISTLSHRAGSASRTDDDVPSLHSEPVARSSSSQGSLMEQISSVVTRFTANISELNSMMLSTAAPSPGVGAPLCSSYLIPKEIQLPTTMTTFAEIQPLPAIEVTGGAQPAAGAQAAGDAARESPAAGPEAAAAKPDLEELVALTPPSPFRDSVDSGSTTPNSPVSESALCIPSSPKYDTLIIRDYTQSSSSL

| Emax [1] | EC50 | Efficacy (%) [1] | Structure (SMILES) |
| --- | --- | --- | --- |
| 90% | 200 nM |  | OC1CCC(Oc2ncc(C#Cc3ccccc3)cc2F)CC1 (racemic) [Example 27, rac-4-(3-Fluoro-5-phenylethynyl-pyridin-2-yloxy)-cyclohexanol] |
| 105% | 345 nM |  | COC1CCCC(OC)C1Nc1ncc(C#Cc2ccccc2)cn1 (mixture of isomers) [Example 5, (2,6-dimethoxy-cyclohexyl)-(5-phenylethynyl-pyrimidin-2-yl)-amine] |
| 55% | 75 nM |  | C[C@H]1CC[C@H](Nc2ncc(C#Cc3ccccc3)cn2)CC1 [Example 19, trans-(4-Methyl-cyclohexyl)-(5-phenylethynyl-pyrimidin-2-yl)-amine] |
| 145% | 268 nM |  | O=C1CCCCN1Cc1ccc(C#Cc2ccccc2)cn1 [Example 32, 1-(5-Phenylethynyl-pyridin-2-ylmethyl)-piperidin-2-one] |
| 133% | 291 nM |  | O[C@H]1C[C@H](COc2ncc(C#Cc3ccccc3)cn2)C1 [Example 25, trans-3-(5-Phenylethynyl-pyrimidin-2-yloxymethyl)-cyclobutanol] |
| 84% | 195 nM |  | CN(c1ncc(C#Cc2ccccc2)cn1)C1CCOCC1 [Example 43, Methyl-(5-phenylethynyl-pyrimidin-2-yl)-(tetrahydro-pyran-4-yl)-amine] |
| 78% | 322 nM |  | OC1CCC(Nc2ncc(C#Cc3ccccc3)cn2)C1 (mixture of isomers) [Example 11, 3-(5-phenylethynyl-pyrimidin-2-ylamino)-cyclopentanol] |
| 40% | 26 nM |  | C(#Cc1cnc(NC2CCCC2)nc1)c1ccccc1 [Example 1, Cyclopentyl-(5-phenylethynyl-pyrimidin-2-yl)-amine] |
| 147% | 844 nM |  | OC[C@H]1CC[C@H](Nc2ncc(C#Cc3ccccc3)cn2)CC1 [Example 6, trans-[4-(5-Phenylethynyl-pyrimidin-2-ylamino)-cyclohexyl]-methanol] |
|  | 94 nM | 93% | CC1(C)CC(Nc2ncc(C#Cc3ccccc3)cn2)CCC1O (single isomer, unassigned) [Example 17, (1S,4S or 1R,4R)-2,2-Dimethyl-4-(5-phenylethynyl-pyrimidin-2-ylamino)-cyclohexanol] |
| 113% | 324 nM |  | CC1(C)CC(Nc2ncc(C#Cc3ccccc3)cn2)CCC1O (racemic) [Example 16, 2,2-Dimethyl-4-(5-phenylethynyl-pyrimidin-2-ylamino)-cyclohexanol] |
| 177% | 132 nM |  | CC1(C)CC(=O)N(Cc2ccc(C#Cc3ccccc3)cn2)C1 [Example 33, 4,4-Dimethyl-1-(5-phenylethynyl-pyridin-2-ylmethyl)-pyrrolidin-2-one] |
| 112% | 52 nM |  | C(#Cc1cnc(NC2CCCCC2)nc1)c1ccccc1 [Example 15, Cyclohexyl-(5-phenylethynyl-pyrimidin-2-yl)-amine] |
| 116% | 192 nM |  | O[C@H]1CC[C@H](Nc2ncc(C#Cc3ccccc3)cc2F)CC1 [Example 18, trans-4-(3-Fluoro-5-phenylethynyl-pyridin-2-ylamino)-cyclohexanol] |
| 100% | 179 nM |  | O[C@H]1CC[C@H](Nc2ncc(C#Cc3ccccc3)cn2)CC1 [Example 7, trans-4-(5-Phenylethynyl-pyrimidin-2-ylamino)-cyclohexanol] |
| 120% | 631 nM |  | O=C1OCCN1Cc1ncc(C#Cc2ccccc2)cn1 [Example 42, 3-(5-Phenylethynyl-pyrimidin-2-ylmethyl)-oxazolidin-2-one] |
| 88% | 101 nM |  | CC1(COc2ncc(C#Cc3ccccc3)cn2)COC1 [Example 24, 2-(3-Methyl-oxetan-3-ylmethoxy)-5-phenylethynyl-pyrimidine] |

| Emax [1] | EC50 | Efficacy (%) [1] | Structure (SMILES) |
| --- | --- | --- | --- |
| 117% | 99 nM |  | OC[C@H]1C[C@H](Oc2ncc(C#Cc3ccccc3)cn2)C1 [Example 26, trans-[3-(5-Phenylethynyl-pyrimidin-2-yloxy)-cyclobutyl]-methanol] |
| 80% | 560 nM |  | OC1CCCC1Nc1ncc(C#Cc2ccccc2)cn1 (mixture of isomers) [Example 12, 2-(5-phenylethynyl-pyrimidin-2-ylamino)-cyclopentanol] |
| 59% | 94 nM |  | CC(c1ccc(C#Cc2ccccc2)cn1)N1CCOC1=O (racemic) [Example 41, rac-3-[1-(5-Phenylethynyl-pyridin-2-yl)-ethyl]-oxazolidin-2-one] |
| 119% | 68 nM |  | CN1CCN(Cc2ccc(C#Cc3ccccc3)cn2)C1=O [Example 35, 1-Methyl-3-(5-phenylethynyl-pyridin-2-ylmethyl)-imidazolidin-2-one] |
| 103% | 338 nM |  | CN(c1ccc(C#Cc2ccccc2)cn1)C1CCOCC1 [Example 44] |
| 61% | 45 nM |  | C(#Cc1ccc(OC2CCCCC2)nc1)c1ccccc1 [Example 28, 2-Cyclohexyloxy-5-phenylethynyl-pyridine] |
| 89% | 172 nM |  | CC1(C)CC(Nc2ncc(C#Cc3ccccc3)cn2)CCO1 (racemic) [Example 3, rac-(2,2-Dimethyl-tetrahydro-pyran-4-yl)-(5-phenylethynyl-pyrimidin-2-yl)-amine] |
| 122% | 56 nM |  | O=C1OCCN1Cc1ccc(C#Cc2ccccc2)cn1 [Example 31, 3-(5-Phenylethynyl-pyridin-2-ylmethyl)-oxazolidin-2-one] |
| 119% | 174 nM |  | O=C1OCCCN1Cc1ccc(C#Cc2ccccc2)cn1 [Example 34, 3-(5-Phenylethynyl-pyridin-2-ylmethyl)-[1,3]oxazinan-2-one] |
| 43% | 43 nM |  | C(#Cc1ccc(NC2CCCC2)nc1)c1ccccc1 [Example 13, Cyclopentyl-(5-phenylethynyl-pyridin-2-yl)-amine] |
| 59% | 110 nM |  | C(#Cc1ccc(NC2CCOCC2)nc1)c1ccccc1 [Example 14, (5-Phenylethynyl-pyridin-2-yl)-(tetrahydro-pyran-4-yl)-amine] |
| 71% | 135 nM |  | CC1(COc2ncc(C#Cc3ccccc3)cc2F)COC1 [Example 29, 3-Fluoro-2-(3-methyl-oxetan-3-ylmethoxy)-5-phenylethynyl-pyridine] |
| 94% | 110 nM |  | O[C@H]1CC[C@H](Oc2ncc(C#Cc3ccccc3)cn2)CC1 [Example 23, trans-4-(5-Phenylethynyl-pyrimidin-2-yloxy)-cyclohexanol] |
| 82% | 84 nM |  | CC1(C)CCC(=O)N1Cc1ccc(C#Cc2ccccc2)cn1 [Example 36, 5,5-Dimethyl-1-(5-phenylethynyl-pyridin-2-ylmethyl)-pyrrolidin-2-one] |
| 46% | 65 nM |  | C(#Cc1cnc(NC2CCOCC2)nc1)c1ccccc1 [Example 2, (5-Phenylethynyl-pyrimidin-2-yl)-(tetrahydro-pyran-4-yl)-amine] |
| 80% | 206 nM |  | C(#Cc1cnc(NCC2CCOCC2)nc1)c1ccccc1 [Example 20, (5-Phenylethynyl-pyrimidin-2-yl)-(tetrahydro-pyran-4-ylmethyl)-amine] |
